Experimental data: US12459899B2, “Isoquinolinone derivatives, method for preparing the same, and pharmaceutical composition for preventing or treating poly(ADP-ribose) polymerase-1-related diseases, comprising the same as active ingredient” (DIGMBIO. INC., priority 2019, dated 2025)

Molecular target: PARP-1 (poly[ADP-ribose] polymerase 1) enzyme (Homo sapiens (Human), UniProt P09874)
Assay: PARP-1 (poly[ADP-ribose] polymerase 1) enzyme inhibitory ability, Trevigen assay kit
Format: biochemical
Settings: 1 nM compound; read-out: PAR P-1 Inhibitory ability at 1 nM
Outline: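 After the 1 hour PARP reaction, wells were washed with PBS containing 0.1% triton X-100 and then PBS. Strep-HRP (50 μL) was bound for 1 hour, wells washed again, and 50 μL of TACS-sapphire substrate developed 15 minutes in the dark. Reactions were stopped with 50 μL of 5% phosphoric acid and absorbance read at 450 nm on a Victor3 reader.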

Sequence of PARP-1 (poly[ADP-ribose] polymerase 1) enzyme (P09874 whole entry): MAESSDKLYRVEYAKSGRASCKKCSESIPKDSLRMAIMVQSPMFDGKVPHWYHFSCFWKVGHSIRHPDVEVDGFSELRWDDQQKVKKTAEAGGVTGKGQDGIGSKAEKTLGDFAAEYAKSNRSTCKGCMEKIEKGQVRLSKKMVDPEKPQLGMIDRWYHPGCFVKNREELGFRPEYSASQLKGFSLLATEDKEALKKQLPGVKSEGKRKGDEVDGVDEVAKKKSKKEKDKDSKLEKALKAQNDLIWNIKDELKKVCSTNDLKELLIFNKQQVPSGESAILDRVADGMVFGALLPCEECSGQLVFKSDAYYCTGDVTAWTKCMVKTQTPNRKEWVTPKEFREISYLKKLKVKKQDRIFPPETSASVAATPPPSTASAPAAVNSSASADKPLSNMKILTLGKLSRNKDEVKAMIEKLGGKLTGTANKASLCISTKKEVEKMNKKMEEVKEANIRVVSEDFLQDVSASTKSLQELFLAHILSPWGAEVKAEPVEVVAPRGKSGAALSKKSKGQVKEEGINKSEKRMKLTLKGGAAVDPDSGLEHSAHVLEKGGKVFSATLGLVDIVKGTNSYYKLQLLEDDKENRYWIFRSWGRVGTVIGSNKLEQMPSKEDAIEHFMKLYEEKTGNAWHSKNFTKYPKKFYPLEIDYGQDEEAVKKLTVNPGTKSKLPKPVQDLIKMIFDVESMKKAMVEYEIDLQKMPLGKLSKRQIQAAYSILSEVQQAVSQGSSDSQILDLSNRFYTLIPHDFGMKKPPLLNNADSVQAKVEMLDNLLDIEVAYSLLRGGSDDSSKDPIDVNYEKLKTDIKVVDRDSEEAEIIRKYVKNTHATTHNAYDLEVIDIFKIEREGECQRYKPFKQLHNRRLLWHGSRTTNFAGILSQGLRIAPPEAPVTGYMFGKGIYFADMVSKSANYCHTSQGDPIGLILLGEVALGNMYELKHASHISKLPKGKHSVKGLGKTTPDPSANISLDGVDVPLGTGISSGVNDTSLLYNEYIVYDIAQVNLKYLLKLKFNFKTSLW

| SMILES | inhibition at 0.001 µM [%] |
| --- | --- |
| O=c1[nH]c(CCCN2CC=C(c3cccc(F)c3)CC2)cc2ncccc12 [Example 238, 7-(3-(4-(3-fluorophenyl)-3,6-dihydropyridin-1(2H)-yl)propyl)-1,6-naphthyridin-5(6H)-one] | < 50 |
| N#Cc1ccc(C2=CCN(CCCc3cc4ncccc4c(=O)[nH]3)CC2)cc1 [Example 239, 4-(1-(3-(5-oxo-5,6-dihydro-1,6-naphthyridin-7-yl)propyl)-1,2,3,6-tetrahydropyridin-4-yl)benzonitrile] | 50 to 80 |
| O=c1[nH]c(CCCN2CC=C(c3ccncc3)CC2)cc2ncccc12 [Example 240, 7-(3-(3,6-dihydro-[4,4′-bipyridine]-1(2H)-yl)propyl)-1,6-naphthyridin-5(6H)-one] | < 50 |
| N#Cc1ccc(N2CCN(C(=O)CCc3cc4ncccc4c(=O)[nH]3)CC2)cc1 [Example 241, 4-(4-(3-(5-oxo-5,6-dihydro-1,6-naphthyridin-7-yl)propanoyl)piperazin-1-yl)benzonitrile] | 50 to 80 |
| N#Cc1ccc(N2CCN(C(=O)CCc3cc4ncccc4c(=O)[nH]3)CC2)nc1 [Example 242, 6-(4-(3-(5-oxo-5,6-dihydro-1,6-naphthyridin-7-yl)propanoyl)piperazin-1-yl)nicotinonitrile] | < 50 |
| N#Cc1ccc(N2CCN(C(=O)CCc3cc4ncccc4c(=O)[nH]3)CC2)cn1 [Example 243, 5-(4-(3-(5-oxo-5,6-dihydro-1,6-naphthyridin-7-yl)propanoyl)piperazin-1-yl)picolinonitrile] | < 50 |
| O=C(CCc1cc2ncccc2c(=O)[nH]1)N1CC=C(c2ccc(F)cc2)CC1 [Example 244, 7-(3-(4-(4-fluorophenyl)-3,6-dihydropyridin-1(2H)-yl)-3-oxopropyl)-1,6-naphthyridin-5(6H)-one] | < 50 |
| N#Cc1ccc(C2=CCN(C(=O)CCc3cc4ncccc4c(=O)[nH]3)CC2)cc1 [Example 245, 4-(1-(3-(5-oxo-5,6-dihydro-1,6-naphthyridin-7-yl)propanoyl)-1,2,3,6-tetrahydropyridin-4-yl)benzonitrile] | < 50 |
| N#Cc1ccc(N2CC3CCC(C2)N3C(=O)CCc2cc3ncccc3c(=O)[nH]2)cc1 [Example 246, 4-(8-(3-(5-oxo-5,6-dihydro-1,6-naphthyridin-7-yl)propanoyl)-3,8-diazabicyclo[3.2.1]octan-3-yl)benzonitrile] | < 50 |
| N#Cc1ccc(NC2CCN(CCCc3cc4cccc(F)c4c(=O)[nH]3)CC2)cc1 [Example 247, 4-((1-(3-(8-fluoro-1-oxo-1,2-dihydroisoquinolin-3-yl)propyl)piperidin-4-yl)amino)benzonitrile] | 50 to 80 |
| N#Cc1ccc(NC2CCN(CCCc3cc4cccc(F)c4c(=O)[nH]3)CC2)cn1 [Example 248, 5-((1-(3-(8-fluoro-1-oxo-1,2-dihydroisoquinolin-3-yl)propyl)piperidin-4-yl)amino)picolinonitrile] | < 50 |
| N#Cc1ccc(NC2CCN(CCCc3cc4ccc(F)cc4c(=O)[nH]3)CC2)cc1 [Example 249, 4-((1-(3-(7-fluoro-1-oxo-1,2-dihydroisoquinolin-3-yl)propyl)piperidin-4-yl)amino)benzonitrile] | < 50 |
| N#Cc1ccc(NC2CCN(CCCc3cc4ncccc4c(=O)[nH]3)CC2)cc1 [Example 250, 4-((1-(3-(5-oxo-5,6-dihydro-1,6-naphthyridin-7-yl)propyl)piperidin-4-yl)amino)benzonitrile] | < 50 |
| N#Cc1ccc(NC2CCN(CCCc3cc4ncccc4c(=O)[nH]3)CC2)cn1 [Example 251, 5-((1-(3-(5-oxo-5,6-dihydro-1,6-naphthyridin-7-yl)propyl)piperidin-4-yl)amino)picolinonitrile] | < 50 |
| COC(=O)c1ccc(NC2CCN(CCCc3cc4ncccc4c(=O)[nH]3)CC2)cc1 [Example 252, methyl 4-((1-(3-(5-oxo-5,6-dihydro-1,6-naphthyridin-7-yl)propyl)piperidin-4-yl)amino)benzoate] | < 50 |
| O=c1[nH]c(CCCN2CCC(Nc3ccc(C(F)(F)F)cc3)CC2)cc2ncccc12 [Example 253, 7-(3-(4-((4-(trifluoromethyl)phenyl)amino)piperidin-1-yl)propyl)-1,6-naphthyridin-5(6H)-one] | < 50 |
| N#Cc1ccc(OC2CCN(CCCc3cc4cccc(F)c4c(=O)[nH]3)CC2)cc1 [Example 254, 4-((1-(3-(8-fluoro-1-oxo-1,2-dihydroisoquinolin-3-yl)propyl)piperidin-4-yl)oxy)benzonitrile] | < 50 |
| N#Cc1ccc(OC2CCN(C(=O)CCc3cc4cccc(F)c4c(=O)[nH]3)CC2)cc1 [Example 255, 4-((1-(3-(8-fluoro-1-oxo-1,2-dihydroisoquinolin-3-yl)propanoyl)piperidin-4-yl)oxy)benzonitrile] | < 50 |

| SMILES | inhibition at 0.001 µM [%] |
| --- | --- |
| N#Cc1ccc(NC2CCN(C(=O)CCc3cc4cccc(F)c4c(=O)[nH]3)CC2)cc1 [Example 256, 4-((1-(3-(8-fluoro-1-oxo-1,2-dihydroisoquinolin-3-yl)propanoyl)piperidin-4-yl)amino)benzonitrile] | < 50 |
| CN(c1ccc(C#N)cc1)C1CCN(C(=O)CCc2cc3cccc(F)c3c(=O)[nH]2)CC1 [Example 257, 4-((1-(3-(8-fluoro-1-oxo-1,2-dihydroisoquinolin-3-yl)propanoyl)piperidin-4-yl)(methyl)amino)benzonitrile] | < 50 |
| N#Cc1ccc(NC2CCN(C(=O)CCc3cc4cccc(F)c4c(=O)[nH]3)CC2)cn1 [Example 258, 5-((1-(3-(8-fluoro-1-oxo-1,2-dihydroisoquinolin-3-yl)propanoyl)piperidin-4-yl)amino)picolinonitrile] | < 50 |
| Cc1ccc(F)c2c(=O)[nH]c(CCC(=O)N3CCC(Nc4ccc(C#N)cc4)CC3)cc12 [Example 259, 4-((1-(3-(8-fluoro-5-methyl-1-oxo-1,2-dihydroisoquinolin-3-yl)propanoyl)piperidin-4-yl)amino)benzonitrile] | < 50 |
| Cc1cc(F)cc2c(=O)[nH]c(CCC(=O)N3CCC(Nc4ccc(C#N)cc4)CC3)cc12 [Example 260, 4-((1-(3-(7-fluoro-5-methyl-1-oxo-1,2-dihydroisoquinolin-3-yl)propanoyl)piperidin-4-yl)amino)benzonitrile] | < 50 |
| Cc1ccc(F)c2c(=O)[nH]c(CCC(=O)N3CCC(Oc4ccc(C#N)cc4)CC3)cc12 [Example 261, 4-((1-(3-(8-fluoro-5-methyl-1-oxo-1,2-dihydroisoquinolin-3-yl)propanoyl)piperidin-4-yl)oxy)benzonitrile] | < 50 |
| Cc1cc(F)cc2c(=O)[nH]c(CCC(=O)N3CCC(Oc4ccc(C#N)cc4)CC3)cc12 [Example 262, 4-((1-(3-(7-fluoro-5-methyl-1-oxo-1,2-dihydroisoquinolin-3-yl)propanoyl)piperidin-4-yl)oxy)benzonitrile] | < 50 |
| Cc1cc(F)cc2c(=O)[nH]c(CCC(=O)N3CCC(Nc4ccc(Cl)cc4)CC3)cc12 [Example 263, 3-(3-(4-((4-chlorophenyl)amino)piperidin-1-yl)-3-oxopropyl)-7-fluoro-5-methylisoquinolin-1(2H)-one] | < 50 |
| Cc1ccc(F)c2c(=O)[nH]c(CCC(=O)N3CCC(Nc4ccc(Cl)cc4)CC3)cc12 [Example 264, 3-(3-(4-((4-chlorophenyl)amino)piperidin-1-yl)-3-oxopropyl)-8-fluoro-5-methylisoquinolin-1(2H)-one] | < 50 |
| Cc1cc(F)cc2c(=O)[nH]c(CCC(=O)N3CCC(Nc4ccc(C(F)(F)F)cc4)CC3)cc12 [Example 265, 7-fluoro-5-methyl-3-(3-oxo-3-(4-((4-(trifluoromethyl)phenyl)amino)piperidin-1-yl)propyl)isoquinolin-1(2H)-one] | < 50 |
| Cc1ccc(F)c2c(=O)[nH]c(CCC(=O)N3CCC(Nc4ccc(C(F)(F)F)cc4)CC3)cc12 [Example 266, 8-fluoro-5-methyl-3-(3-oxo-3-(4-((4-(trifluoromethyl)phenyl)amino)piperidin-1-yl)propyl)isoquinolin-1(2H)-one] | < 50 |
| COC(=O)c1ccc(NC2CCN(C(=O)CCc3cc4c(C)cc(F)cc4c(=O)[nH]3)CC2)cc1 [Example 267, methyl 4-((1-(3-(7-fluoro-5-methyl-1-oxo-1,2-dihydroisoquinolin-3-yl)propanoyl)piperidin-4-yl)amino)benzoate] | < 50 |
| COC(=O)c1ccc(NC2CCN(C(=O)CCc3cc4c(C)ccc(F)c4c(=O)[nH]3)CC2)cc1 [Example 268, methyl 4-((1-(3-(8-fluoro-5-methyl-1-oxo-1,2-dihydroisoquinolin-3-yl)propanoyl)piperidin-4-yl)amino)benzoate] | < 50 |
| Cc1ccc(F)c2c(=O)[nH]c(CCC(=O)N3C4CCC3CC(O)C4)cc12 (stereo not drawn) [Example 269, 8-fluoro-3-(3-(3-hydroxy-8-azabicyclo[3.2.1]octan-8-yl)-3-oxopropyl)-5-methylisoquinolin-1(2H)-one] | < 50 |
| Cc1ccc(F)c2c(=O)[nH]c(CCC(=O)N3CCC(O)CC3)cc12 [Example 270, 8-fluoro-3-(3-(4-hydroxypiperidin-1-yl)-3-oxopropyl)-5-methylisoquinolin-1(2H)-one] | < 50 |
| O=c1[nH]c(CCCN2C3CCC2CC(O)C3)cc2ncccc12 (stereo not drawn) [Example 271, 7-(3-(3-hydroxy-8-azabicyclo[3.2.1]octan-8-yl)propyl)-1,6-naphthyridin-5(6H)-one] | < 50 |
| O=c1[nH]c(CCCN2C3CCC2CC(O)C3)cc2cccc(F)c12 (stereo not drawn) [Example 272, 8-fluoro-3-(3-(3-hydroxy-8-azabicyclo[3.2.1]octan-8-yl)propyl)isoquinolin-1(2H)-one] | 50 to 80 |

Same assay, conditions: PARP-1 enzyme activity

| SMILES | IC50 [nM] |
| --- | --- |
| N#Cc1ccc(N2CCN(C(=O)CCc3cc4ncccc4c(=O)[nH]3)CC2)cc1 [Example 241, 4-(4-(3-(5-oxo-5,6-dihydro-1,6-naphthyridin-7-yl)propanoyl)piperazin-1-yl)benzonitrile] | 4.92 |
| N#Cc1ccc(N2CCN(C(=O)CCc3cc4ncccc4c(=O)[nH]3)CC2)nc1 [Example 242, 6-(4-(3-(5-oxo-5,6-dihydro-1,6-naphthyridin-7-yl)propanoyl)piperazin-1-yl)nicotinonitrile] | 3.18 |
| COC(=O)c1ccc(NC2CCN(C(=O)CCc3cc4c(C)ccc(F)c4c(=O)[nH]3)CC2)cc1 [Example 268, methyl 4-((1-(3-(8-fluoro-5-methyl-1-oxo-1,2-dihydroisoquinolin-3-yl)propanoyl)piperidin-4-yl)amino)benzoate] | 8.59 |
| O=c1[nH]c(CCCN2C3CCC2CC(O)C3)cc2cccc(F)c12 (stereo not drawn) [Example 272, 8-fluoro-3-(3-(3-hydroxy-8-azabicyclo[3.2.1]octan-8-yl)propyl)isoquinolin-1(2H)-one] | 3.27 |
